In this assay the target is T1, CDK1/CyclinB (Homo sapiens, UniProt P06493).
T1 construct: purchased Upstate Discovery
The experiment in a line: Activated CDK1/CyclinB kinase inhibitory activity assay. It is filed as biochemical. How it is done:
The reaction is allowed to proceed for 2 to 4 hours before being stopped with an excess of ortho-phosphoric acid (5 μl at 2%). γ^33P-ATP which remains unincorporated into the histone H1 is separated from phosphorylated histone H1 on a Millipore MAPH filter plate. The wells of the MAPH plate are wetted with 0.5% orthophosphoric acid, and then the results of the reaction are filtered with a Millipore vacuum filtration unit through the wells. Following filtration, the residue is washed twice with 200 μl of 0.5% orthophosphoric acid. Once the filters have dried, 20 μl of Microscint 20 scintillant is added, and then counted on a Packard Topcount for 30 seconds.
CDK1/CyclinB assay is identical to the CDK2/CyclinA above except that CDK1/CyclinB (Upstate Discovery) is used and the enzyme is diluted to 6.25 nM.

The structures appear in SMILES notation.

T1 sequence (P06493 whole entry): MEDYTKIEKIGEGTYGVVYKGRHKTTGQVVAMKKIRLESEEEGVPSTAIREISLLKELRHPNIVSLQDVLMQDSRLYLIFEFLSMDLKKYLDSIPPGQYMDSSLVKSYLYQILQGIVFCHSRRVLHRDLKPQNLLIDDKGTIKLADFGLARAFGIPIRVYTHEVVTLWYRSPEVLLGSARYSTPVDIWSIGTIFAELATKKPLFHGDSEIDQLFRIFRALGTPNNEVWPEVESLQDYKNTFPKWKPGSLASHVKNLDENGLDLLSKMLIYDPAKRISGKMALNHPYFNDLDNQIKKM
T1 sequence (P14635 whole entry partner): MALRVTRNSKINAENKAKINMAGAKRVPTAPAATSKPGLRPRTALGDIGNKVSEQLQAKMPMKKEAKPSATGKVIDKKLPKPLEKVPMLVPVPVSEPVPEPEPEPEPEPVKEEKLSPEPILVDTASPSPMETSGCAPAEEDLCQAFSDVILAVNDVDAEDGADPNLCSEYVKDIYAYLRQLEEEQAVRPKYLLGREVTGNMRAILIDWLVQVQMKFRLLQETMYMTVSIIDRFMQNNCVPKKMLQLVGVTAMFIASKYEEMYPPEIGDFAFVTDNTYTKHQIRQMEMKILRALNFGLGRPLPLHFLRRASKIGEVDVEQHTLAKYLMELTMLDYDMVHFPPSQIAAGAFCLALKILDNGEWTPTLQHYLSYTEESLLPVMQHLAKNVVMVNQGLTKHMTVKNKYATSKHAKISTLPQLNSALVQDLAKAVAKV

Usually IC50 stands for the midpoint of a concentration-inhibition curve. Low values mean inhibition by little substance, high ones a need for much substance. `O=C(Nc1c[nH]nc1-c1nc2cc(CN3CCOCC3)ccc2[nH]1)NC1CCOCC1` [Example 27]: the IC50 is below 50 µM.
`CS(=O)(=O)CCNC(=O)Nc1c[nH]nc1-c1nc2cc(CN3CCOCC3)ccc2[nH]1` [Example 33] gave an IC50 below 50 µM.
Compound `O=C(Nc1c[nH]nc1-c1nc2cc(CN3CCOCC3)ccc2[nH]1)[C@@H]1CCCO1` [Example 13] came in with an IC50 below 1 µM.
`O=C(NCC1CCOCC1)Nc1c[nH]nc1-c1nc2cc(CN3CCOCC3)ccc2[nH]1` [Example 26] returned an IC50 below 50 µM.
`Cc1nc2sccn2c1C(=O)Nc1c[nH]nc1-c1nc2cc(CN3CCOCC3)ccc2[nH]1` [Example 2, 6-methyl-imadazol[2,1-b]thiazole-5-carboxylic acid[3-(5-morpholin-4-ylmethyl-1H-benzoimidazol-2-yl)-1H-pyrazol-4-yl]-amide] yielded an IC50 below 50 µM.
Take `CN(C(=O)Nc1c[nH]nc1-c1nc2cc(CN3CCOCC3)ccc2[nH]1)c1ccc(F)cc1F` [Example 42]: the IC50 was below 1 µM.
For `CN(C(=O)Nc1c[nH]nc1-c1nc2cc(CN3CCOCC3)ccc2[nH]1)c1ccc(F)cc1` [Example 37, 1-(4-fluorophenyl)-1-methyl-3-[3-(5-morpholin-4-ylmethyl-1H-benzimadazol-2-yl)-1H-pyrazol-4-yl]-urea] the value was below 50 µM; for `O=C(Nc1c[nH]nc1-c1nc2cc(CN3CCOCC3)ccc2[nH]1)N1Cc2ccccc2C1` [Example 28], below 10 µM.
`CN(C(=O)Nc1c[nH]nc1-c1nc2cc(CN3CCOCC3)ccc2[nH]1)c1cccc(F)c1` [Example 41] yielded an IC50 below 10 µM.
For `CN(C(=O)Nc1c[nH]nc1-c1nc2cc(CN3CCOCC3)ccc2[nH]1)c1ccccc1F` [Example 43] the value was below 50 µM; for `O=C(Nc1cccc(F)c1)Nc1c[nH]nc1-c1nc2cc(CN3CCOCC3)ccc2[nH]1` [Example 50], below 10 µM.
As for `COc1cc2nc(-c3n[nH]cc3NC(=O)C3CCCN(C)C3)[nH]c2cc1OC` (racemic) [Example 17, N-[3-(5,6-dimethoxy-H-benzimidazol-2-yl)-1H-pyrazol-4-yl]-rac-1-methyl-piperidine 3-carboxamide], the figure is below 10 µM; as for `N#CCC(=O)Nc1c[nH]nc1-c1nc2cc(CN3CCOCC3)ccc2[nH]1` [Example 3, 2-cyano-N-[3-(5-morpholin-4-ylmethyl-1H-benzoimidaxol-2-yl)-1H-pyrazol-4-yl]-acetamide], below 10 µM; as for `O=C(Nc1c[nH]nc1-c1nc2cc(CN3CCOCC3)ccc2[nH]1)C1CCOC1` (stereo not shown) [Example 9], below 10 µM.
`O=C(NCc1c(F)cccc1F)Nc1c[nH]nc1-c1nc2cc(CN3CCOCC3)ccc2[nH]1` [Example 23] registered an IC50 below 50 µM.
For `O=C(NCC1CC1)Nc1c[nH]nc1-c1nc2cc(CN3CCOCC3)ccc2[nH]1` [Example 34], the IC50 is below 10 µM.
Compound `CC(C)(CO)C(=O)Nc1c[nH]nc1-c1nc2cc(CN3CCOCC3)ccc2[nH]1` [Example 8] had an IC50 below 10 µM.
As for `Cn1cccc(NC(=O)Nc2c[nH]nc2-c2nc3cc(CN4CCOCC4)ccc3[nH]2)c1=O` [Example 39], the figure is below 10 µM; as for `COc1ccc(Cl)cc1NC(=O)Nc1c[nH]nc1-c1nc2cc(CN3CCOCC3)ccc2[nH]1` [Example 56], below 10 µM.
For the compound `O=C(Nc1ccccc1F)Nc1c[nH]nc1-c1nc2cc(CN3CCOCC3)ccc2[nH]1` [Example 49], the IC50 is below 10 µM.
Take `COc1cc2nc(-c3n[nH]cc3NC(=O)C3CN(C(C)C)CCO3)[nH]c2cc1OC` (racemic) [Example 16, N-[3-(5,6-dimethoxy-1H-benzimidazol-2-yl)-1H-pyrazol-4-yl]-rac-4 isopropyl-2-morpholine carboxamide]: the IC50 was below 10 µM.
`N#CC(C(=O)Nc1c[nH]nc1-c1nc2cc(CN3CCOCC3)ccc2[nH]1)C1CC1` (stereo not shown) [Example 4, 2-Cyano-2-cyclopropyl-N-[3-(5-morpholin-4-ylmethyl-1H-benzoimidazol-2-yl)-1H-pyrazol-4-yl]-acetamide] registered an IC50 below 1 µM.
